According to US20110280940A1, “Di-Vanilloyl And Tri-Vanilloyl Derivatives For Use In Anti-Cancer Therapy” (priority 2008, published 2011):

Tests used:
CDK5/p25 = molecular target: T1, CDK5/p25 (Homo sapiens, UniProt Q00535); assay: Kinase activity assay, CDK5; assay type: biochemical; conditions: 10 μM, 1% DMSO, 15 μM ATP; residual activity
T1 construct: made in house
Experimental: (§1) Buffer A: 10 mM MgCl2, 1 mM EGTA, 1 mM DTT, 25 mM Tris-HCl pH 7.5, 50 μg heparin/ml. Buffer C: 60 mM β-glycerophosphate, 15 mM p-nitrophenylphosphate, 25 mM Mops (pH 7.2), 5 mM EGTA, 15 mM MgCl2, 1 mM DTT, 1 mM sodium vanadate, 1 mM phenyl phosphate.
(§2) Kinase activities were assayed in Buffer A or C, at 30° C., at a final ATP concentration of 15 μM. Blank values were subtracted and activities expressed in % of the maximal activity, i.e. in the absence of inhibitors. Controls were performed with appropriate dilutions of DMSO.
CDK1/cyclin B (M phase starfish oocytes, native), CDK2/cyclin A, CDK2/cyclin E, CDK5/p25 and CDK7/cyclin H (human, recombinant) were prepared as previously described (Leclerc et al., 2001, J. Biol. Chem. 2001, 276, 251-260; Bach et al., 2005, J Biol Chem 280: 31208-31219). Their kinase activity was assayed in buffer C, with 1 mg histone H1/ml, in the presence of 15 μM [gamma-^33P] ATP (3,000 Ci/mmol; 10 mCi/ml) in a final volume of 30 μl. After 30 min incubation at 30° C., 25 μl aliquots of supernatant were spotted onto 2.5×3 cm pieces of Whatman P81 phosphocellulose paper, and, 20 sec later, the filters were washed five times (for at least 5 min each time) in a solution of 10 ml phosphoric acid/liter of water. The wet filters were counted in the presence of 1 ml ACS (Amersham) scintillation fluid.

DYRK1A = DYRK1A (Rattus norvegicus, UniProt Q63470); assay: Kinase activity assay, DYRK1A (GST fusion, myelin basic protein substrate); assay type: biochemical
Experimental: as §1, §2
DYRK1A (rat, recombinant, expressed in E. coli as a GST fusion protein) was purified by affinity chromatography on glutathione-agarose and assayed as described for CDK1/cyclin B using myelin basic protein (1 mg/ml) as a substrate.

250 protein kinases = assay: Kinase inhibition profile of DLT11 at 20 μM (33 PanQinase); assay type: biochemical, human; conditions: out of 250 kinases
Experimental: (§3) The kinase inhibition profile of DLT11 at 20 μM was determined using 250 protein kinases. Residual activity values were measured by testing each compound at one concentration in duplicate in each kinase assay. A radiometric protein kinase assay (33 PanQinase®Activity Assay) was used for measuring the kinase activity of 250 protein kinases. All kinase assays were performed in 96-well flashPlates™ from Perkin Elmer (Boston, Mass., USA) in a 50 μl reaction volume. The reaction cocktail was pipetted in 4 steps in the following order: • 10 μl of non-radioactive ATP solution (in H2O) • 25 μl of assay buffer/[γ-33P]-ATP mixture • 5 μl of test sample in 10% DMSO • 10 μl of enzyme/substrate mixture […]
(§4) Incorporation of ^33Pi (counting of “cpm”) was determined with a microplate scintillation counter (Microbeta, Wallac).
For each kinase, the median value of the cpm of three wells with complete reaction cocktails, but without kinase, was defined as “low control” (n=3). This value reflects unspecific binding of radioactivity to the plate in the absence of protein kinase but in the presence of the substrate. […] The residual activity (in %) for each compound well was calculated by using the following formula: Res. Activity (%)=100×[(cpm of compound−low control)/(high control−low control)] […]

Aurora kinases = assay: Kinase inhibition profile of DLT11 at 20 μM, Aurora kinases; assay type: biochemical, human; conditions: 20 μM (FIG. 3)
Experimental: as §3, §4
For each kinase, the median value of the cpm of three wells with complete reaction cocktails, but without kinase, was defined as “low control” (n=3). This value reflects unspecific binding of radioactivity to the plate in the absence of protein kinase but in the presence of the substrate. […] The residual activity (in %) for each compound well was calculated by using the following formula: Res. Activity (%)=100×[(cpm of compound−low control)/(high control−low control)]

T1 sequence (Q00535 whole entry): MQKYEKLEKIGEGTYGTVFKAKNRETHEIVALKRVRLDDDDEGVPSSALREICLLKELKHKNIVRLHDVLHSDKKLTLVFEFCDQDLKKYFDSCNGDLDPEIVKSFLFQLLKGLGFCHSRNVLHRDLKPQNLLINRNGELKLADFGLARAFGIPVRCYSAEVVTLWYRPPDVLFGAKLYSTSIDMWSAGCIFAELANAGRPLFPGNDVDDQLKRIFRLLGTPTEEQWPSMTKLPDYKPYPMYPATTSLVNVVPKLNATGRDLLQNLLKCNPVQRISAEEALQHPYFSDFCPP
T1 sequence (Q15078 99-307 partner limits assumed): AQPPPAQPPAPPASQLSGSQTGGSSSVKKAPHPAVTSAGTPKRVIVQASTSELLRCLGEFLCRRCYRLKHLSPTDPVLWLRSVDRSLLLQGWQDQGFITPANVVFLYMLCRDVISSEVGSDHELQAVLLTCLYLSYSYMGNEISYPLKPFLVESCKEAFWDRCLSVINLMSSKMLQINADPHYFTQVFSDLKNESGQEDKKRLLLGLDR

## COc1cc(C(=O)OCCOC(=O)c2ccc(O)c(OC)c2)ccc1O [DLT1, Ethane-1,2-diyl bis-(4-hydroxy-3-methoxybenzoate)]
CDK5/p25
  % ENZYMATIC ACTIVITY, CDK5: 87%
DYRK1A
  inhibition at 10 µM: 51%
DYRK1A; 10 μM, 1% DMSO, 15 μM ATP, residual activity
  % ENZYMATIC ACTIVITY, Dyrk1A: 49%

## COc1cc(C(=O)OCCCCCCOC(=O)c2ccc(O)c(OC)c2)ccc1O [DLT11, Hexane-1,6-diyl bis-(4-hydroxy-3-methoxybenzoate)]
250 protein kinases
  number of kinases that had their activity inhibited: 19
Aurora kinases
  inhibition of 2 Aurora kinases: more than 80%
